Results taken from US12258477B2, “Silicon-substituted rhodamine dyes and dye conjugates” (Life Technologies Corporation, priority 2018, dated 2025).
Entries after “also recorded” stand apart in the source; their conditions may differ.

Columns and labels:
Live HeLa cells [1] = experiment: Live cell nuclear staining, fluorescence microscopy vs SiR-Hoechst (Example 2); format: cell-based; conditions: 1 μM and 2 μM
Description: The fluorescence intensity of Compound 4 was compared to SiR-Hoechst (Spirochrome, Switzerland) using fluorescence microscopy. Live HeLa cells were stained with SiR-Hoechst or Compound 4 at 1 μM or 2 μM for 30 minutes at 37° C. After washing with LCIS buffer to remove excess dye, images from 5 replicates were collected using the Cy5 channel of a fluorescence microscope and analyzed using HCS Studio software. Representative images of cells are shown in FIGS. 3A-3B (stained with SiR-Hoechst) and FIGS. 3C-3D (stained with Compound 4). […] The mean nuclear signal intensity was 48% higher in the cells stained with Compound 4 than in the cells stained with SiR-Hoechst, based on averaging the ratios of fluorescence intensity at 1 μM and 2 μM.

[2] = Excitation and emission maxima of compounds dissolved in solvents; format: physicochemical
Description: Certain compounds were tested when dissolved in solvents. Three replicates were performed to determine the excitation and emission maxima.

tubulin [3] = experiment: Tubulin staining of live cells with docetaxel probes vs SiR-Taxol (Examples 3, 13); format: cell-based; conditions: live HeLa, 0.5 μM, 30 min 37 °C
Description: The fluorescence intensity of Compound 5 (a tubulin probe using docetaxel as the target-binding moiety) was compared to SiR-Taxol (Spirochrome, Switzerland). Live HeLa cells were stained with 0.5 μM Compound 5 or SiR-Taxol for 30 minutes at 37° C. and prepared for imaging. Images are shown in FIGS. 4A-4B (stained with Compound 5), and FIGS. 4C-4D (stained with SiR-Taxol).
The fluorescence intensity of two diasteromers of Compound 5 and a mixture of two isomers was compared to SiR-Taxol (Spirochrome, Switzerland). Live HeLa cells were stained with 0.5 μM of each compound for 30 minutes at 37° C. and prepared for imaging.

Fixed HeLa cells = experiment: Fixed cell nuclear staining and photostability vs TO-PRO-3 (Example 4); format: cell-based; conditions: 1 μM, Cy5 channel
Description: The fluorescence intensity and photostability of Compound 7 were compared with TO-PRO-3, a fixed cell nucleic acid stain with far-red fluorescence. Fixed HeLa cells were stained with 1 μM Compound 7 or TO-PRO-3 for 30 minutes at RT and prepared for imaging using the Cy5 channel of a fluorescence microscope.

[4] = Fluorescence characteristics, dye only dissolved in water; format: physicochemical; conditions: for Emission in water (λem) / absorption in water (λabs): Table 6, in water; for shift of absorption maxima to blue when each vinyl group was changed to a methyl: relative to Compound 11
Description: (§1) The fluorescence characteristics of various disclosed compounds and ALEXA FLUOR™ 647 dye (AF647) dissolved in water (dye only) or as goat anti-mouse (GAM) IgG conjugates dissolved in phosphate buffered saline (PBS) were determined. Three replicates were performed to determine the excitation and emission maxima and quantum yield. Quantum yield was measured for the dye only samples.
Experiments were performed to examine the effect of different SiR substitution patterns on absorption maxima using Compounds 10A, 11, 12, and 13. One or both of the vinyl groups of Compound 11 are replaced with methyl in Compounds 10A and 12, respectively. In Compound 13, one methyl group on each of the two exocyclic amines was eliminated relative to Compound 12. […] A 30 nm shift was observed when one methyl group on each of the two exocyclic amines was eliminated (Table 6). Therefore, modification of SiR dyes using groups linked to the SiR moiety through the Si have a smaller effect than the removal of methyl groups.

[5] = Fluorescence characteristics of goat anti-mouse (GAM) IgG conjugates in PBS; format: physicochemical; conditions: for Max Abs / Max Em: GAM IgG conjugate in PBS; for Absorption of IgG conjugates / Emission of IgG conjugates: Table 6, IgG conjugates in PBS
Description: as §1
The effect of conjugation of an SiR, in this example Compounds 8, 10A, and 12, to IgG on absorbance (shown in FIG. 11A) and on emission (shown in FIG. 11B) maxima were compared with IgG-AF647. The absorption and emission maxima of the SiR-conjugates (665 nm/690 nm) are approximately 20 nm red-shifted compared with AF647 conjugate. The emission maximum shifted 15 nm to red.

Live HeLa cells [6] = experiment: Live cell nuclear staining with ESP-SiR isomers, HeLa (Example 12); format: cell-based; conditions: 1 μM, 30 min 37 °C
Description: The fluorescence intensity of each isomer of Compound 4 (Compound 4B and Compound 4C) was compared using fluorescence microscopy. A DMSO stock solution (1 mM) was used to prepare solutions of each isomer to a final concentration of 5, 2.5, 1.25 and 0.6 μM in PBS containing probenecid.
Live HeLa or A549 cells were stained with each concentration of isomer for 30 minutes at 37° C. After washing with LCIS buffer to remove excess dye, images from 5 replicates were collected using the Cy5 channel of a fluorescence microscope and analyzed using HCS Studio software. […] The mean nuclear signal intensity was almost 2-fold higher in both cell types stained with Compound 4B than in the cells stained with Compound 4C at each of the concentrations tested.
The fluorescence intensity of Compound 4B and 4C was compared to SiR-Hoechst (Spirochrome, Switzerland) using fluorescence microscopy. Live HeLa cells were stained with SiR-Hoechst or Compound 4B or 4C at 1 μM for 30 minutes at 37° C. After washing with LCIS buffer to remove excess dye, images from 5 replicates were collected using the Cy5 and D API channels of a fluorescence microscope and analyzed using HCS Studio software.

A549 cells = experiment: Photobleaching of dye-labeled secondary antibody conjugates in fixed cells without anti-fade medium; format: cell-based; conditions: GAM antibody conjugates (13 DOL 4.7, 14 DOL 4.0, AF647 DOL 4.9); over 700 seconds exposure, no anti-fade medium
Description: A549 cells were plated at a density of 5,000 cells per well on Greiner 96 well plates and allowed to adhere overnight. The following day, they were treated for two hours at 37° C. with 50 μM etoposide to induce phosphorylation of pH2AX for antibody probing, then fixed for 20 minutes at room temperature in 4% PFA, prepared in PBS. After fixation, cells were rinsed 3× in PBS and permeabilized for 20 minutes with 0.1% Triton X-100, prepared in PBS. Following Triton treatment, cells were washed 3× in PBS and placed in blocking solution, made with 3% BSA in PBS. Each plate was treated with primary antibody, prepared in blocking solution at 5 μg/mL, either […]. Following incubation with primary antibody, cells were washed 3× in PBS and stored in blocking solution before probing with secondary antibody. Secondary antibody labeled with Compound 13 (DOL 4.7); Compound 14 (DOL 4.0) or AF647 (DOL 4.9) was prepared from 5 μg/mL in blocking solution and cells were incubated for one hour at room temperature before washing 3× in PBS and moving plates to the CX-5 CellInsight for quantification of signal. The fluorescent signal data was collected every second for over 700 seconds' period. […]
Fluorescence intensity was monitored in samples mounted without anti-fade medium over a period of about 12 minutes of exposure to excitatory light.

tubulin [7] = experiment: Immunofluorescence tubulin staining with dye-labeled antibody conjugates vs AF647 (Example 9); format: cell-based, mouse
Description: The fluorescence intensity of SiR conjugates, Compound 10A (DOL=15) and Compound 10A (DOL=10), where DOL is the degree of labeling, were compared to an AF647 conjugate using fluorescence microscopy. Live mouse cells were stained with mouse anti-tubulin conjugated to AF647 (shown in FIG. 12A), or mouse anti-tubulin conjugated with Compound 10A (DOL=15 shown in FIG. 12B) at increasing concentrations for 60 minutes at 25° C. After washing with PBS buffer to remove excess dye, images were collected using the Cy5 channel of a fluorescence microscope and analyzed using integrated software. […] The SiR dyes gave images 6-8 fold dimmer that AF647 in the Cy5 channel, consistent with the shifted maxima discussed above. […] Little to no photobleaching was observed during imaging.

Max Abs ([4]; Dye Only in water) [nm]	Max Em ([4]; Dye Only in water) [nm]	Quantum Yield ([4]; Dye Only in water)	Quantum Yield ([4]; Table 6) [%]	Emission in water (λem) [4] [nm]	absorption in water (λabs) [4] [nm]	Molecule	Max Abs [5] [nm]	Max Em [5] [nm]	Absorption of IgG conjugates [5] [nm]	Emission of IgG conjugates [5] [nm]	also measured
						CN1CCN(c2ccc3[nH]c(-c4ccc5[nH]c(-c6ccc(OCCCCNC(=O)CCSCC[Si]7(C)C8=CC(=[N+](C)C)C=CC8=C(c8ccccc8C(=O)[O-])c8ccc(N(C)C)cc87)cc6)nc5c4)nc3c2)CC1 (stereo not shown) [Compound 4]					mean nuclear signal intensity, higher than in cells stained with SiR-Hoechst (Live HeLa cells [1]; live HeLa, 30 min 37 °C, Cy5 channel, averaged ratios of fluorescence intensity): 48%; staining brightness compared with SiR-Hoechst (Live HeLa cells [1]; live cells): noticeably brighter
						CC(=O)O[C@@]12CO[C@@H]1C[C@H](O)[C@@]1(C)C(=O)[C@H](O)C3=C(C)[C@@H](OC(=O)[C@H](O)[C@@H](NC(=O)CCCCCNC(=O)CCSCC[Si]4(C)C5=CC(=[N+](C)C)C=CC5=C(c5ccccc5C(=O)[O-])c5ccc(N(C)C)cc54)c4ccccc4)C[C@@](O)([C@@H](OC(=O)c4ccccc4)C12)C3(C)C (stereo partly shown) [Compound 5]					Max Abs ([2]; Solvent MeOH/HCl): 650 nm; Max Em ([2]; Solvent MeOH/HCl): 676 nm; fluorescence signal compared with SiR-Taxol (tubulin [3]): brighter signal than cells stained with SiR-Taxol
						CN(C)c1ccc2c(c1)[Si](C)(C)C1=CC(=[N+](C)C)C=CC1=C2c1ccccc1C(=O)N1CCC(C(=O)O)CC1 [Compound 7A]					Max Abs ([2]; Solvent MeOH): 657 nm; Max Em ([2]; Solvent MeOH): 682 nm
						CN1CCN(c2ccc3[nH]c(-c4ccc5[nH]c(-c6ccc(OCCCCNC(=O)C7CCN(C(=O)c8ccccc8C8=C9C=CC(=[N+](C)C)C=C9[Si](C)(C)c9cc(N(C)C)ccc98)CC7)cc6)nc5c4)nc3c2)CC1 [Compound 7]					staining brightness, Compound 7 vs TO-PRO-3 (Fixed HeLa cells; 30 min RT): unexpectedly brighter than TO-PRO-3 staining; fluorescence after a 1 minute exposure to excitation light (Fixed HeLa cells): still retained substantial fluorescence; Max Abs ([2]; Solvent TE): 672 nm; Max Em ([2]; Solvent TE): 678 nm
670	683	0.38	38	683	670	C=C[Si]1(C=C)c2cc(N(C)C)ccc2C2(OC(=O)c3ccccc32)c2ccc(N(C)C)cc21 [Compound 11, Si,Si-Divinyl-N,N-tetramethyl-SiR]	671	693	671	692	
						CN1CCN(c2ccc3nc(-c4ccc5nc(-c6ccc(OCCCCNC(=O)c7ccc(C(=O)[O-])c(C8=C9C=CC(=[N+](C)C)C=C9[Si](C)(C)c9cc(N(C)C)ccc98)c7)cc6)[nH]c5c4)[nH]c3c2)CC1 [SiR-Hoechst]					signal on the DAPI channel (Live HeLa cells [6]): almost no signals were observed
						C[n+]1c(/C=C/C=C2\C=CN(CCC[N+](C)(C)C)c3ccccc32)sc2ccccc21 [TO-PRO-3, reference compound]					fluorescence after a 1 minute exposure to excitation light (Fixed HeLa cells): little to no fluorescence was observable; also recorded: more diminished
630	642	0.5	50	642	630	Si,Si-dimethyl-N, N-dimethyl-SiR [Compound 13]	635	655	635	655	shift of absorption maxima when one methyl group on each of the two exocyclic amines was eliminated ([4]; relative to Compound 12): 30 nm; resistance to photobleaching (A549 cells): substantially resistant to photobleaching; also recorded: much more resistant to photobleaching
661	673	0.45	45	673	661	Si,Si-dimethyl-N, N-tetramethyl-SiR [Compound 12]	662	681	664	683	shift of absorption maxima to blue when each vinyl group was changed to a methyl [4]: about 5 nm
			41	678	666	Si-vinyl-Si-methyl-N,N-tetramethyl-SiR [Compound 10A]			668	688	shift of absorption maxima to blue when each vinyl group was changed to a methyl [4]: about 5 nm; photobleaching during imaging / photostability vs AF647 (tubulin [7]): better photostability than AF647; target specificity, off-target or background fluorescence (tubulin [7]): no off-target or background fluorescence; brightness compared with AF647 (tubulin [7]; Cy5 channel): less bright than AF647
